Results reported in the supplement of paper PMC10307832.

Legend:
Assay in all cases: relative viability (nuclei count vs DMSO), 5 days (fraction); higher = more cells survive
[1] = compound: COc1cc(N2CCC(N3CCN(C)CC3)CC2)ccc1Nc1ncc(Cl)c(Nc2ccccc2S(=O)(=O)C(C)C)n1 [NVP-TAE684] + COc1cc2c(Oc3ccc(NC(=O)C4(C(=O)Nc5ccc(F)cc5)CC4)cc3F)ccnc2cc1OCCCN1CCOCC1 [Foretinib] (partner 0.25 µM)
Procedure, shortened: (§1)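 Nuclei were stained with Hoechst during a one-step fixation (final 0.05% Triton X-100, 1% formaldehyde, 1 ug/ml Hoechst) carried out 5 days after dosing, then counted on 4× images. The cells, lung cancer lines in 1536-well plates, had been dosed by pin tool the day after seeding with one drug alone or a fixed anchor-drug dose plus five library-drug doses (not always all listed) in √10 steps. Relative viability is the nuclei count in treated wells divided by that in vehicle wells, and each value is the median of duplicate plates.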

[2] = compound: COc1cc(N2CCC(N3CCN(C)CC3)CC2)ccc1Nc1ncc(Cl)c(Nc2ccccc2S(=O)(=O)C(C)C)n1 [NVP-TAE684] + Nc1nc2[nH]cc(CCc3ccc(C(=O)N[C@@H](CCC(=O)O)C(=O)O)cc3)c2c(=O)[nH]1 [Pemetrexed] (partner 0.2 µM)
Procedure, shortened: as §1

[3] = compound: C#Cc1cccc(Nc2ncnc3cc(OC)c(OCCCCCCC(=O)NO)cc23)c1 [CUDC-101] + Nc1nc2[nH]cc(CCc3ccc(C(=O)N[C@@H](CCC(=O)O)C(=O)O)cc3)c2c(=O)[nH]1 [Pemetrexed] (partner 0.2 µM)
Procedure, shortened: as §1

[4] = compound: COc1cc(N2CCC(N3CCN(C)CC3)CC2)ccc1Nc1ncc(Cl)c(Nc2ccccc2S(=O)(=O)C(C)C)n1 [NVP-TAE684] + CCNC(=O)c1noc(-c2cc(C(C)C)c(O)cc2O)c1-c1ccc(CN2CCOCC2)cc1 [Luminespib] (partner 0.01 µM)
Procedure, shortened: as §1

[5] = compound: C1=CC=C2C(=C1)N=C(S2)C(C#N)C3=NC(=NC=C3)NCCC4=CN=CC=C4 + O=C(c1cc(Cc2n[nH]c(=O)c3ccccc23)ccc1F)N1CCN(C(=O)C2CC2)CC1 [Olaparib] (partner 8 µM)
Procedure, shortened: as §1

Q: Which relative viability ([1]; first compound 0.2 µM) does the source give for NCI-H1563 here?
A: 0.914

Q: And the relative viability ([1]; first compound 0.6325 µM)?
A: 0.88

Q: What about the relative viability ([1]; first compound 2 µM) of the same cell line?
A: 0.696

Q: What about the relative viability ([2]; first compound 0.2 µM) of the same cell line?
A: 0.757

Q: What about the relative viability ([2]; first compound 0.6325 µM) of the same cell line?
A: 0.692

Q: And the relative viability ([2]; first compound 2 µM)?
A: 0.654

Q: What about the relative viability ([3]; first compound 0.01 µM) of the same cell line?
A: 0.78

Q: And the relative viability ([3]; first compound 0.03162 µM)?
A: 0.758

Q: And the relative viability ([3]; first compound 0.1 µM)?
A: 0.844

Q: And the relative viability ([3]; first compound 0.3162 µM)?
A: 0.773

Q: What about the relative viability ([3]; first compound 1 µM) of the same cell line?
A: 0.512

Q: And the relative viability ([4]; first compound 0.2 µM)?
A: 0.542

Q: And the relative viability ([4]; first compound 0.6325 µM)?
A: 0.548

Q: And the relative viability ([4]; first compound 2 µM)?
A: 0.407

Q: With NCI-H1734 as the cell line, how does the relative viability ([5]; first compound 0.005 µM) read?
A: 0.509

Q: And the relative viability ([5]; first compound 0.01581 µM)?
A: 0.616

Q: What about the relative viability ([5]; first compound 0.05 µM) of the same cell line?
A: 0.664

Q: And the relative viability ([5]; first compound 0.1581 µM)?
A: 0.633

Q: And the relative viability ([5]; first compound 0.5 µM)?
A: 0.614

Q: What about the relative viability ([1]; first compound 0.2 µM) of the same cell line?
A: 0.802

Q: What about the relative viability ([1]; first compound 0.6325 µM) of the same cell line?
A: 0.824

Q: What about the relative viability ([1]; first compound 2 µM) of the same cell line?
A: 0.354

Q: And the relative viability ([2]; first compound 0.2 µM)?
A: 0.47

Q: And the relative viability ([2]; first compound 0.6325 µM)?
A: 0.437

Q: What about the relative viability ([2]; first compound 2 µM) of the same cell line?
A: 0.348

Q: What about the relative viability ([3]; first compound 0.01 µM) of the same cell line?
A: 0.414

Q: And the relative viability ([3]; first compound 0.03162 µM)?
A: 0.407

Q: What about the relative viability ([3]; first compound 0.1 µM) of the same cell line?
A: 0.392

Q: And the relative viability ([3]; first compound 0.3162 µM)?
A: 0.465

Q: And the relative viability ([3]; first compound 1 µM)?
A: 0.39

Q: And the relative viability ([4]; first compound 0.2 µM)?
A: 0.221

Q: What about the relative viability ([4]; first compound 0.6325 µM) of the same cell line?
A: 0.164

Q: And the relative viability ([4]; first compound 2 µM)?
A: 0.166

Q: With EPLC-272H as the cell line, how does the relative viability ([5]; first compound 0.01581 µM) read?
A: 0.803

Q: What about the relative viability ([5]; first compound 0.05 µM) of the same cell line?
A: 0.733

Q: And the relative viability ([5]; first compound 0.1581 µM)?
A: 0.825

Q: What about the relative viability ([5]; first compound 0.5 µM) of the same cell line?
A: 0.517

Q: What about the relative viability ([1]; first compound 0.2 µM) of the same cell line?
A: 0.756

Q: What about the relative viability ([1]; first compound 0.6325 µM) of the same cell line?
A: 0.639

Q: And the relative viability ([1]; first compound 2 µM)?
A: 0.247

Q: What about the relative viability ([2]; first compound 0.2 µM) of the same cell line?
A: 0.425

Q: And the relative viability ([2]; first compound 0.6325 µM)?
A: 0.297

Q: What about the relative viability ([2]; first compound 2 µM) of the same cell line?
A: 0.15

Q: And the relative viability ([3]; first compound 0.01 µM)?
A: 0.345

Q: What about the relative viability ([3]; first compound 0.03162 µM) of the same cell line?
A: 0.316

Q: And the relative viability ([3]; first compound 0.1 µM)?
A: 0.428

Q: What about the relative viability ([3]; first compound 0.3162 µM) of the same cell line?
A: 0.387

Q: And the relative viability ([3]; first compound 1 µM)?
A: 0.235

Q: And the relative viability ([4]; first compound 0.2 µM)?
A: 0.185

Q: What about the relative viability ([4]; first compound 0.6325 µM) of the same cell line?
A: 0.382

Q: And the relative viability ([4]; first compound 2 µM)?
A: 0.217

Q: RERF-LC-KJ was tested. Which relative viability ([5]; first compound 0.005 µM) did it give?
A: 0.923

Q: And the relative viability ([5]; first compound 0.01581 µM)?
A: 0.993

Q: And the relative viability ([5]; first compound 0.05 µM)?
A: 0.895

Q: And the relative viability ([5]; first compound 0.1581 µM)?
A: 0.97

Q: What about the relative viability ([5]; first compound 0.5 µM) of the same cell line?
A: 0.44

Q: What about the relative viability ([1]; first compound 0.2 µM) of the same cell line?
A: 0.853

Q: And the relative viability ([1]; first compound 0.6325 µM)?
A: 0.931

Q: What about the relative viability ([1]; first compound 2 µM) of the same cell line?
A: 0.771

Q: What about the relative viability ([2]; first compound 0.2 µM) of the same cell line?
A: 0.484

Q: What about the relative viability ([2]; first compound 0.6325 µM) of the same cell line?
A: 0.489

Q: And the relative viability ([2]; first compound 2 µM)?
A: 0.431

Q: And the relative viability ([3]; first compound 0.01 µM)?
A: 0.476

Q: What about the relative viability ([3]; first compound 0.03162 µM) of the same cell line?
A: 0.493

Q: What about the relative viability ([3]; first compound 0.1 µM) of the same cell line?
A: 0.438

Q: What about the relative viability ([3]; first compound 0.3162 µM) of the same cell line?
A: 0.42

Q: What about the relative viability ([3]; first compound 1 µM) of the same cell line?
A: 0.357

Q: And the relative viability ([4]; first compound 0.2 µM)?
A: 1.65

Q: And the relative viability ([4]; first compound 0.6325 µM)?
A: 1.21

Q: What about the relative viability ([4]; first compound 2 µM) of the same cell line?
A: 0.587

Q: How did the relative viability ([5]; first compound 0.005 µM) turn out when EBC-1 was run?
A: 0.784

Q: What about the relative viability ([5]; first compound 0.01581 µM) of the same cell line?
A: 0.757

Q: And the relative viability ([5]; first compound 0.05 µM)?
A: 0.656

Q: And the relative viability ([5]; first compound 0.1581 µM)?
A: 0.629

Q: And the relative viability ([5]; first compound 0.5 µM)?
A: 0.574

Q: What about the relative viability ([1]; first compound 0.2 µM) of the same cell line?
A: 0.0925

Q: What about the relative viability ([1]; first compound 0.6325 µM) of the same cell line?
A: 0.117

Q: And the relative viability ([1]; first compound 2 µM)?
A: 0.107
